Reference: the NIST ThermoML archive (doi:10.1021/je900697w)
Numbers after ± are expanded uncertainties.

How the values were obtained:
[1] = xn = mol fraction of the nth substance listed; details: for surface tension liquid-gas: Ring tensiometer; for mass density: 101 kPa, Liquid, Vibrating tube method
[2] = for surface tension liquid-gas: Ring tensiometer; for mass density: 101.33 kPa, Liquid
[3] = 101 kPa, Liquid mixture 1, Ring tensiometer

CCCCCC[n+]1ccn(C)c1.O=S(=O)([N-]S(=O)(=O)C(F)(F)F)C(F)(F)F + C=CCCCCCC
[1], x2 = 0
Details | mass density [kg/m3] | surface tension liquid-gas [mN/m]
283.1 K | 1385.4 ± 1 | 31.2 ± 0.5
298.15 K | 1370.7 ± 1.3 | 30.8 ± 0.6
323.15 K | 1348 ± 4 | 28.9 ± 0.9
348.15 K | 1324 ± 4 | 27.6 ± 0.6

C=CCCCCCC [oct-1-ene]
[2]
Details | surface tension liquid-gas [mN/m]
283.1 K | 22.5 ± 0.4
298.15 K | 21.2 ± 0.4
323.15 K | 18.5 ± 0.4
348.15 K | 15.7 ± 0.4

[2], Vibrating tube method
Details | mass density [kg/m3]
283.1 K | 723.5 ± 1.3
298.15 K | 711.2 ± 1.3
323.15 K | 690 ± 20
348.15 K | 668 ± 24

C=CCCCCCC [oct-1-ene] + CCCCCC[n+]1ccn(C)c1.O=S(=O)([N-]S(=O)(=O)C(F)(F)F)C(F)(F)F
[1]
Details | mass density [kg/m3] | surface tension liquid-gas [mN/m]
283.1 K, x1 = 0.05 | 1372.1 ± 1.7 | 30.9 ± 0.5
283.1 K, x1 = 0.1 | 1356 ± 10 | 29.8 ± 0.5
283.1 K, x1 = 0.139 | 1340 ± 20 | –
283.1 K, x1 = 0.15 | – | 27.8 ± 0.4
283.1 K, x1 = 0.154 | 1340 ± 20 | –
283.1 K, x1 = 0.16 | – | 27.7 ± 0.5
283.1 K, x1 = 1 | – | 22.5 ± 0.4
298.15 K, x1 = 0.05 | 1358 ± 12 | 30.3 ± 0.5
298.15 K, x1 = 0.1 | 1342 ± 4 | 29.4 ± 0.6
298.15 K, x1 = 0.139 | 1328 ± 14 | –
298.15 K, x1 = 0.15 | – | 27.4 ± 0.4
298.15 K, x1 = 0.154 | 1326 ± 6 | –
298.15 K, x1 = 0.19 | – | 27 ± 0.9
298.15 K, x1 = 1 | – | 21.2 ± 0.4
323.15 K, x1 = 0.05 | 1336 ± 4 | 28.8 ± 1.3
323.15 K, x1 = 0.1 | 1319 ± 12 | 28.7 ± 1.1
323.15 K, x1 = 0.139 | 1306 ± 12 | –
323.15 K, x1 = 0.15 | – | 26.6 ± 0.6
323.15 K, x1 = 0.154 | 1303 ± 4 | –
323.15 K, x1 = 0.23 | – | 25.5 ± 0.9
323.15 K, x1 = 1 | – | 18.5 ± 0.4
348.15 K, x1 = 0.05 | 1313 ± 10 | 27.4 ± 0.7
348.15 K, x1 = 0.1 | 1300 ± 20 | 27.2 ± 1.3
348.15 K, x1 = 0.139 | 1282 ± 12 | –
348.15 K, x1 = 0.15 | – | 26.3 ± 1.3
348.15 K, x1 = 0.154 | 1279 ± 22 | –
348.15 K, x1 = 0.28 | – | 25.3 ± 0.9
348.15 K, x1 = 1 | – | 15.7 ± 0.4

[3]
Details | interfacial tension [mN/m]
283.1 K | 13.3 ± 2.6
298.15 K | 13 ± 2.6
323.15 K | 9.7 ± 2.6
348.15 K | 4.4 ± 2.6

CCCCCC[n+]1ccn(C)c1.O=S(=O)([N-]S(=O)(=O)C(F)(F)F)C(F)(F)F
[2]
Details | mass density [kg/m3] | surface tension liquid-gas [mN/m]
283.1 K | 1385.4 ± 2.6 | 31.2 ± 0.5
298.15 K | 1370.7 ± 2.6 | 30.8 ± 0.6
323.15 K | 1348 ± 5 | 28.9 ± 0.9
348.15 K | 1324 ± 5 | 27.6 ± 0.6
